Laboratory results taken from PMC9653804, “Multifunctional Derivatives of Spiropyrrolidine Tethered Indeno-Quinoxaline Heterocyclic Hybrids as Potent Antimicrobial, Antioxidant and Antidiabetic Agents: Design, Synthesis, In Vitro and In Silico Approaches” (Molecules, 2022).
Values after ≈ are worked out from the molar mass of the structure shown.

Tests used:
[1] = system: Staphylococcus aureus ATCC 25923; assay: Antimicrobial activity (MIC, MBC) against S. aureus; assay type: cell-based; conditions: S. aureus ATCC 25923; for MBC/MIC: bactericidal ≤ 4, bacteriostatic > 4; for MIC: Staphylococcus aureus, ATCC25923, '-' = No activity
[2] = system: Micrococccus luteus NCIMB 8166; assay: Antimicrobial activity (MIC, MBC) against M. luteus; assay type: cell-based; conditions: M. luteus NCIMB 8166; '-' = No activity
[3] = system: Escherichia coli ATCC 25922; assay: Antimicrobial activity (MIC, MBC) against E. coli; assay type: cell-based; conditions: E. coli ATCC 25922; '-' = No activity
[4] = system: Pseudomonas aeruginosa ATCC 27853; assay: Antimicrobial activity (MIC, MBC) against P. aeruginosa; assay type: cell-based; conditions: P. aeruginosa ATCC 27853; '-' = No activity
[5] = system: Candida albicans ATCC 90028; assay: Antifungal activity (MIC, MFC) against C. albicans; assay type: cell-based; conditions: C. albicans ATCC 90028, '-' = No activity; for MFC/MIC: fungicidal ≤ 4, fungistatic > 4
Candida krusei ATCC 6258 = assay: Antifungal activity (MIC, MFC) against C. krusei; assay type: cell-based; conditions: C. krusei ATCC 6258, '-' = No activity; for MFC / MIC: Pichia kudriavzevii, ATCC6258
[6] = DPPH free radical scavenging activity; conditions: for IC50: DPPH radical scavenging
Procedure: DPPH, the stable artificial free radicals, has been widely used for the measurement of free radical scavenging capacity of the compounds in ethanol and aqueous systems. Briefly, 2 mL DPPH solution (0.2 mM, in 95% ethanol) was incubated with 2 mL different concentrations of compounds solution. Then, the reaction mixture was shaken and incubated in the dark for 40 min at room temperature. The absorbance was immediately recorded at 517 nm against ethanol with a spectrophotometer (Metash, model UV-5200, Shanghai Xiwen Biotech. Co., Ltd, Shanghai, China). The DPPH free radical scavenging rate was calculated using the equation:DPPH scavenging activity (%) = A0 − A1/A0 × 100 where A0 was the absorbance of the control reaction (containing all reagents except the tested compound), and A1 was the absorbance of the test reaction (containing all reagents with the tested compound). The percentage of DPPH radical scavenging activity was plotted against the sample concentration to acquire the IC50 value, defined as the concentration of sample necessary to cause 50% inhibition. Radical scavenging activity (RSA) was calculated from the IC50 value as the equation: RSA = pIC50 = −lg[IC50]. The smaller the IC50 value, the larger is the RSA value and the higher is the antioxidant activity.

[7] = Radical scavenging activity ABTS; conditions: for IC50: ABTS radical scavenging
Procedure: The ABTS assay was performed as previously described by Tuberoso et al.. ABTS^+ radical was generated by oxidation of ABTS with potassium persulfate. The blue–green ABTS was produced through the reaction between 2 mM ABTS and […] potassium persulfate in water. The mixture was left to stand in the dark for 12 to 16 h before use. The ABTS solution was diluted with methanol to an absorbance of 0.700 ± 0.005 at 734 nm. Then 2 mL of diluted ABTS solution was mixed with 100 μL of samples and absorbance was measured after 1 min incubation at room temperature. A standard curve was obtained by using Trolox as standard solution. The results were expressed as μM Trolox equivalent.
The mixture of 7 mmol/L aqueous ABTS solution with 2.45 mmol/L potassium persulfate solution constitutes a stable ABTS^+ stock solution that was allowed to stand in the dark and at room temperature for 12 to 16 h before use. A 1 mL sample of the diluted ABTS solution (adjusted to 0.7 ± 0.02 at […]) was added to 10 μL of each product. The absorbance was determined after 6 min. The percentage inhibition of the ABTS˙ radical was calculated from the following equation:% inhibition = (Abscontrol − Abstest)/Abscontrol × 100
Abs control: the control absorbance.
Abs test: the absorbance of the test sample after 6 min.

[8] = Ferric reducing power assay (FRAP); conditions: relative to standard Trolox
Procedure: The FRAP assay was used to determine the AC of the products by the reduction of Fe(III) and Fe (II). Briefly, Fe(III) was reduced to Fe(II), and Fe(II) was mixed with TPTZ to form a blue complex with strong absorption peak at 593 nm at pH = 3.6 condition. Acetate buffer (pH = 3.6), TPTZ solution (10 mM, in 40 mM hydrochloric acid) and FeCl3 solution (20 mM, in water) were mixed in a ratio of 10:1:1 to prepare FRAP working solution. The products solution (0.5 mL) was mixed with 4.0 mL FRAP working solution, and reacted at 37 °C for 30 min in the dark, and the absorbance at 593 nm was immediately recorded with a spectrophotometer. The result was expressed as the equivalent amount of Trolox per mole of the samples (mol TE/mol).

[9] = Ferric reducing power assay (FRAP)

Row | MIC [1] [mM] | MBC/MIC [2] | MBC/MIC [3] | MBC/MIC [4] | MIC ([5]; Candida albicans, ATCC90028) [mM] | MFC/MIC (Candida krusei ATCC 6258) | MIC (Candida krusei ATCC 6258) [mM] | IC50 [6] [µM] | IC50 [7] [µM] | melting point [°C] | IC50 [9] [µM] | Structure (SMILES) | MBC/MIC [1] | MFC/MIC [5] | MFC (Candida krusei ATCC 6258) [mM] | FRAP activity, fold higher than Trolox [8] | MFC ([5]; Candida albicans, ATCC90028) [mM] | DPPH scavenging activity, fold better than Trolox ([6]; relative to standard Trolox) [fold] | ABTS scavenging activity, fold higher than Trolox ([7]; relative to standard Trolox) [fold]
1 | 33.3 (≈ 15.6 mg/mL) | 1 | 2 | 2 | 66.7 (≈ 31.1 mg/mL) | 1 | 66.7 (≈ 31.1 mg/mL) | 19.1 ± 0.23 | 18.04 ± 0.13 | 203 to 205 | 6.32 ± 0.68 | CN1C(=O)CC2(C1=O)C(c1cccs1)CN(C)C21c2ccccc2-c2nc3ccccc3nc21 (stereo not drawn) [5h, Spiro [2,11″]indeno-[1,2b]-quinoxaline-spiro-[3,3′]-N-methylsuccinimide-4-(4-thiophenyl)hexahydro-1H-pyrrolidines] | 16 | 4 | 66.7 (≈ 31.1 mg/mL) | about 6.5 fold | – | – | –
2 | – | 1 | 2 | 4 | – | 1 | 31.4 (≈ 15.6 mg/mL) | 7.8 ± 0.32 | 11.4 ± 0.36 | 193 to 195 | 5.98 ± 0.52 | CN1C(=O)CC2(C1=O)C(c1cccc(Cl)c1)CN(C)C21c2ccccc2-c2nc3ccccc3nc21 (stereo not drawn) [5i, Spiro [2,11″]indeno-[1,2b]-quinoxaline-spiro-[3,3′]-N-methylsuccinimide-4-(3-chloro-phenyl)hexahydro-1H-pyrrolidines] | 4 | – | 31.4 (≈ 15.6 mg/mL) | about 6.5 fold | – | – | –
3 | 15.7 (≈ 7.78 mg/mL) | 1 | 2 | 4 | 62.9 (≈ 31.1 mg/mL) | 1 | 31.4 (≈ 15.6 mg/mL) | 6.12 ± 0.01 | 12.2 ± 0.18 | 182 to 184 | 6.54 ± 0.18 | CN1C(=O)CC2(C1=O)C(c1ccc(Cl)cc1)CN(C)C21c2ccccc2-c2nc3ccccc3nc21 (stereo not drawn) [5e, Spiro [2,11″]indeno-[1,2b]-quinoxaline-spiro-[3,3′]-N-methylsuccinimide-4-(4-chlorophenyl)hexahydro-1H-pyrrolidines] | 16 | 1 | 31.4 (≈ 15.6 mg/mL) | about 6.5 fold | 62.9 (≈ 31.1 mg/mL) | 5.1 | ~8
